Measurements as given in patent US9096608B2, “Pharmaceutically active pyrazolo-triazine derivatives” (LEAD DISCOVERY CENTER GMBH, priority 2012, dated 2015).

Tests used:
Assay type in all cases: biochemical
CDK2/CycA = target: T1, CDK2/CycA (Homo sapiens, UniProt P24941); experiment: CDK2 Enzymatic Activity Assay (Lance Kinase Activity Assay, FRET); settings: Table 5B; symbols per IC50 ranges of b615
T1 construct: purchased Proqinase
Outline: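 Compounds serially diluted 1:3 over 8 steps, run with CDK2/CycA, ULight-MBP substrate and ATP in HEPES pH 7.5 buffer for 1 h at room temperature. LANCE TR-FRET detection with Eu-anti-phospho-MBP after EDTA stop; IC50 from sigmoidal dose-response curves.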

CDK7/CycH/Mat1 = target: T2, CDK7/CycH/Mat1 (Homo sapiens, UniProt P50613); experiment: CDK7 Enzymatic Activity Assay (Lance Kinase Activity Assay, FRET); settings: Table 5A; 25 μM ATP final; read-out: CDK7: IC50 [mM] for CDK7 inhibition (the above defined ranges apply)
T2 construct: purchased Carna
Outline: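 TR-FRET (LANCE) kinase assay with ULight-MBP peptide substrate and Eu-labelled anti-phospho antibody; compounds in 8-point 1:3 series in HEPES 50 mM pH 7.5, MgCl2 10 mM, EGTA 1 mM, DTT 2 mM, 0.01% Tween-20.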

CDK9/Cyclin T1 = target: T3, CDK9/Cyclin T1 (Homo sapiens, UniProt P50750); experiment: CDK9 Enzymatic Activity Assay (Lance Kinase Activity Assay, FRET); settings: Table 5B; symbols per IC50 ranges of b615
T3 construct: purchased Invitrogen
Outline: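 TR-FRET detection of ULight-MBP substrate phosphorylation by CDK9/cyclin T1 using a Eu-anti-phospho-MBP antibody, in 50 mM HEPES pH 7.5, 10 mM MgCl2, 1 mM EGTA, 2 mM DTT, 0.01% Tween-20. Kinase reaction 1 h at room temperature, then EDTA detection buffer for 1 h before reading.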

T3 sequence (P50750 whole entry): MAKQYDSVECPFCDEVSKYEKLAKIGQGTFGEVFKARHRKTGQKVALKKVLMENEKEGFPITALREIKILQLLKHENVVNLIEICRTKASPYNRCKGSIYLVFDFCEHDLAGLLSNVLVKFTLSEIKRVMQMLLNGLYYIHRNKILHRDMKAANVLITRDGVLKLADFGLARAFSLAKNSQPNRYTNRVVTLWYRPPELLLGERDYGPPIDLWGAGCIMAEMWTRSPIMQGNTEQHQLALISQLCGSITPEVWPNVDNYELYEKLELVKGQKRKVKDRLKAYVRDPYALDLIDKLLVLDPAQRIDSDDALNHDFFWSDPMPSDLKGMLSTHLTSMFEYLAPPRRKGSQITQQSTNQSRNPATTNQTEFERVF
T3 sequence (O60563 whole entry partner): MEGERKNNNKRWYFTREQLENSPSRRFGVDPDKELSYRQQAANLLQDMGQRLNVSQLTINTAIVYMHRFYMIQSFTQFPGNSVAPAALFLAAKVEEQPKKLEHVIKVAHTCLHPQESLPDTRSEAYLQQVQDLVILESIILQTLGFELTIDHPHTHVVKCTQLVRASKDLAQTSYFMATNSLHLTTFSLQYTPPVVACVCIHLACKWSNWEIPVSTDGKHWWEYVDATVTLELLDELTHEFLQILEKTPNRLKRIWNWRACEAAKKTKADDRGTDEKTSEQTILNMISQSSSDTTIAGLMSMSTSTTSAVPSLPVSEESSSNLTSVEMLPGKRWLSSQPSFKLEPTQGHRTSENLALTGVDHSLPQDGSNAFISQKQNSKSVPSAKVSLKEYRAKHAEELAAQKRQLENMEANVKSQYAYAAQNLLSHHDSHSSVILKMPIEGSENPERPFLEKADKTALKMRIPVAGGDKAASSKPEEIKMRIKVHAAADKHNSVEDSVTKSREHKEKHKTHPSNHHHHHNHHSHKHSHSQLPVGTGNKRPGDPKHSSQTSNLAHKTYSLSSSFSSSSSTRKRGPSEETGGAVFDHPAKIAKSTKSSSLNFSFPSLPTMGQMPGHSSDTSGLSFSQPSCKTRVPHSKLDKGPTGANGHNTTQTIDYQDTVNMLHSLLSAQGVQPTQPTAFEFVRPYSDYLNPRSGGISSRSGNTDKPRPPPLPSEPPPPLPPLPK
T2 sequence (P50613 whole entry): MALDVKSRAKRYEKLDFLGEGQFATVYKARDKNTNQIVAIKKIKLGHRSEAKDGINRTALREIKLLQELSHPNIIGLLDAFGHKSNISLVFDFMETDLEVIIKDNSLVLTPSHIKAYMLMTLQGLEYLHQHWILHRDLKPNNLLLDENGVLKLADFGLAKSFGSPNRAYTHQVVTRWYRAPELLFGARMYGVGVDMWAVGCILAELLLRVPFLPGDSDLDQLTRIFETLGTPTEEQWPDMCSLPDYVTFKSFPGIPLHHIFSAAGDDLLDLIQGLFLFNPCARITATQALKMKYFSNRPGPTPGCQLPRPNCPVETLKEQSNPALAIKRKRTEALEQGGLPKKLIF
T2 sequence (P51946 whole entry partner): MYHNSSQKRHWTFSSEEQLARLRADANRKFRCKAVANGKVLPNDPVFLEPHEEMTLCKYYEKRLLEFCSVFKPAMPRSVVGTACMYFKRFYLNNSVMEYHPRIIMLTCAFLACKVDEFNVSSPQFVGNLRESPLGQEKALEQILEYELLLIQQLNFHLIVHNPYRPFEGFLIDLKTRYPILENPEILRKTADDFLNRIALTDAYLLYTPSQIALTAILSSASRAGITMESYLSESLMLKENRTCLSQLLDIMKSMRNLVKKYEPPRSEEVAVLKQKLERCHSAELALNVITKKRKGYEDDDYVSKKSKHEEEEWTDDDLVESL
T2 sequence (P51948 whole entry partner): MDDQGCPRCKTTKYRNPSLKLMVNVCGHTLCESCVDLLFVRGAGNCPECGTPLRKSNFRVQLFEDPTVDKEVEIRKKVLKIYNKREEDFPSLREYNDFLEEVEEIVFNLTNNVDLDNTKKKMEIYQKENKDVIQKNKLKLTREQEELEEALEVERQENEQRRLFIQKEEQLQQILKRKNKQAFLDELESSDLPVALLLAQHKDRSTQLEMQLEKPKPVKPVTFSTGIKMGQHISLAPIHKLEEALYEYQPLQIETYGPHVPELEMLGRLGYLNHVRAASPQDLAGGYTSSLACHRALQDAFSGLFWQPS

COc1cccc([C@H](C)Nc2nc(CN(C)CCCN3CCCCC3)nc3c(C(C)C)cnn23)c1 [(XXIX-8), (S)-8-isopropyl-N-(1-(3-methoxyphenyl)ethyl)-2-((methyl(3-(piperidin-1-yl)propyl)amino)methyl)pyrazolo[1,5-a][1,3,5]triazin-4-amine]
CDK2 IC50 range class (CDK2/CycA): +++ (IC50>2500 nM)
IC50 (CDK7/CycH/Mat1): > 0.0001 mM
CDK9: Selectivity of CDK7 inhibition over CDK9 inhibition [fold] (CDK9/Cyclin T1): +++ (IC50>2500 nM)
